Legend:
traumatic brain injury = test: Example 2: dose response, Morris water maze after TBI, cyclodextrin vehicle; format: in vivo
Description: Beginning one week after surgery, spatial learning ability was assessed in the Morris water maze (MWM) task described previously. Each animal was tested for a total of 10 days in two 5-day trial blocks (acquisition and retention respectively). Animals were placed in the pool (nose facing the pool-wall) at one of four randomly determined starting positions (e.g.: N, S, E, W). Each rat was allowed to swim freely in the pool until it found the hidden platform or until 90 seconds had elapsed. […] Once on the platform, animals were allowed to rest for 10 seconds and then removed from the pool and placed near a heat lamp for warmth. Each rat was given two trials per day with a 20-second intertrial interval (ITI). The dependent measures for this task were latency to find the hidden platform and swim strategy (e.g., percent of time spent in the inner vs. outer annuli). Swim speed measures were recorded daily in order to delineate motor dysfunction from learning impairment.
Surgery to induce a traumatic brain injury was performed as outlined in Example 1. Behavior testing using the Morris Water Maize was performed as outlined in Example 1 and the methods for the tactical adhesive removal were performed.

[1] = tested on: medial frontal cortex injury; test: Example 3: lesion reconstruction (lesion volume); format: in vivo, Sprague-Dawley rats; conditions: tapered withdrawal, injured (TWI)
Description: Male Sprague-Dawley rats received either medial frontal cortex injury or sham surgery. Injections were given 1 and 6 hours post-injury, and every 24 hours for 7 days. Treatment groups (n=8) encompassed injured (I) and sham (S) acute withdrawal (AW), tapered withdrawal (TW) and vehicle (V) treatments. TW injections were progressively halved over the final two treatments. Behavioral testing was conducted post-surgery, mid- and post-withdrawal. Activity boxes were used to investigate vertical movements and exploration: Sensory neglect and anxiety behaviors were also analyzed. Brain harvesting was performed at 8 days or 3 weeks post-injury. Perfused tissue sections were analyzed for lesion volume and immunohistochemical response. Fresh brain tissue was flash frozen in chilled 2-methyl butane, and then homogenized for Western blot analysis.

BDNF = test: Example 4: Western blotting densitometry, BDNF; format: in vivo, Sprague-Dawley rats
Excerpt: (§1) 60 male Sprague-Dawley rats weighing 290-310 g at the time of injury were used in this experiment. Food and water were provided ad libidum before and after surgery. Animals were handled and weighed daily from their arrival, seven days pre-surgery, to brain extraction three weeks post-surgery. Animals were handled in squads of 12, with n=10 per experimental condition. All animal procedures were approved by the Emory University Animal Care and Use Committee, Protocol #131-2002.
Isofluorane anesthesia was induced for four minutes and 45 seconds at 5% and maintained at 2.5%. Normal body temperature was maintained with a surgical heating pad placed beneath the sterile dressings. The scalp incision area was shaved and sterilized with iodine and isopropanol. A midline incision was made along the scalp and the fascia cleared to expose the surface of the skull. Medial, lateral, and dorsal stereotaxic coordinates were determined at bregma, and a 5-7 mm diameter bilateral craniotomy was performed mid-sagitally, 3 mm anterior to bregma. […] Sutures were used to close the incision after bleeding ceased. Animals were placed in individual heated, clean recovery cages until they awakened, and were returned to clean individual home cages with accessible moistened food pellets. Sham animals were anesthetized, and an incision was made at the top of the head. The fascia was cleared to expose bregma, then the incision was sutured closed. Sham surgeries were matched to lesion surgeries for all experimental conditions.
Sham (S) and lesion (L) animals were randomly assigned to one of three treatment groups: vehicle (VS, VL), acute withdrawal (AWS, AWL), and tapered withdrawal (TWS, TWL). […] Tapering was induced as halved dosages over the last two days of treatment. Dilutions for TW treatments were made with HBC stock. […]
Brains for protein analysis were sectioned into the immediate area of the lesion and snap frozen in 2-methyl-butane chilled on dry ice. […] The amount of brain homogenate needed to standardize samples to 2 μg/μL for Western blotting was calculated from the results of these assays. […]

GFAP = format: in vivo; conditions: acute withdrawal, lesion (AWL) vs VL; three weeks post-injury
Excerpt: as §1
Isofluorane anesthesia was induced for four minutes and 45 seconds at 5% and maintained at 2.5%. Normal body temperature was maintained with a surgical heating pad placed beneath the sterile dressings. The scalp incision area was shaved and sterilized with iodine and isopropanol. A midline incision was made along the scalp and the fascia cleared to expose the surface of the skull. Medial, lateral, and dorsal stereotaxic coordinates were determined at bregma, and a 5-7 mm diameter bilateral craniotomy was performed mid-sagitally, 3 mm anterior to bregma. […]
All animals were decapitated following a lethal 1 mL injection of Nembutal at three weeks post-injury. […] Thionin-stained sections from 4.2-2.2 mm anterior to bregma were identified and analyzed for lesion area using Kodak ID software. Total brain area was determined by determined by normalizing to the volume of sham brain sections. […]

CC(=O)[C@H]1CC[C@H]2[C@@H]3CCC4=CC(=O)CC[C@]4(C)[C@H]3CC[C@]12C [progesterone, pregn-4-ene-3,20-dione]
Morris water maze performance (traumatic brain injury; high dose 32 mg/kg in a cyclodextrin-containing vehicle): did not show any beneficial effect
Morris water maze performance (traumatic brain injury; low dose 8 mg/kg in a cyclodextrin-containing vehicle): consistent improvement in Morris water maze performance
Morris water maze performance (traumatic brain injury; moderate dose 16 mg/kg in a cyclodextrin-containing vehicle): consistent improvement in Morris water maze performance
lesion volume [1]: smallest lesion volume
BDNF levels (BDNF; acute withdrawal, lesion (AWL) vs VL, three weeks post-injury): AWL over VL
BDNF levels (BDNF; sham animals (AWS, TWS, VS)): Sham animals did not display any differences between treatment groups
BDNF levels (BDNF; tapered withdrawal, lesion (TWL) vs AWL, three weeks post-injury): increase in BDNF levels for TWL over AWL
GFAP immunofluorescence luminosity (reactive astrocytes) (GFAP): upregulated in VL (A) animals over AWL (B) animals

Reference: patent US8614203B2, “Methods for the treatment of a central nervous system injury via a tapered administration protocol” (Emory University, priority 2005, dated 2013)
